Values of other authors, collected in US20060079522A1, “Amino substituted aryloxybenzylpiperidine derivatives” (priority 2004, published 2006).
Read-outs that look alike come from different tables or passages of the source.

Experiments:
[1] = target: T1, MCH1 receptor (Rattus norvegicus, UniProt P97639); settings: rat forced-swim
T1 construct: SNAP-7941, a selective MCH1 small molecule antagonist, was evaluated in several animal models; host or cells: living rats (endogenous receptor)

[2] = tested on: MCH1 receptor; settings: guinea pig maternal-separation vocalization
[3] = target: T1, MCH1 receptor; settings: rat social interaction

T1 sequence (P97639 whole entry): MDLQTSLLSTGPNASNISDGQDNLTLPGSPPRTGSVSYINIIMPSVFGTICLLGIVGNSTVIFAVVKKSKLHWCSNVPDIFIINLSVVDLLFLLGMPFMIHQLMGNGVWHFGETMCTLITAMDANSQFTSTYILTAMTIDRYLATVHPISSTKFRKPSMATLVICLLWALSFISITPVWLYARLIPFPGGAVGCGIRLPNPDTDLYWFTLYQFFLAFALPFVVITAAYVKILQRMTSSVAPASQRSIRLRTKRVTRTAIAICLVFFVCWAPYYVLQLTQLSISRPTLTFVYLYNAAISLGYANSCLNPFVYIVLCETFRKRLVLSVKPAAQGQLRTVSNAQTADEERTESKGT

SMILES: COCC1=C(C(=O)OC)[C@H](c2ccc(F)c(F)c2)N(C(=O)NCCCN2CCC(c3cccc(NC(C)=O)c3)CC2)C(=O)N1 [SNAP-7941]
- profile in behavioral model of depression and/or anxiety [1]: profile similar to clinically used anti-depressants and anxiolytics
- profile in behavioral model of depression and/or anxiety [2]: profile similar to clinically used anti-depressants and anxiolytics
- profile in behavioral model of depression and/or anxiety [3]: profile similar to clinically used anti-depressants and anxiolytics
